Measured values reported in patent US11590110B2, “Compositions and methods for reactivating latent immunodeficiency virus using a GSK-3 inhibitor” (priority 2017, dated 2023).
“Also recorded” adds a separate entry of the source. Like-named read-outs stand apart in the source and are kept apart here.

How the values were obtained:
[1] = system: patient-derived CD4+ T cells; experiment: Example 3: expression of activation markers CD69 and CD25 in patient-derived CD4+ T cells; type: cell-based, human; conditions: 48 hours; anti-CD3/CD28 beads = 100%
Description: Following treatment with Tideglusib, the CD4^+ T cells were spun down and stained with antibodies for the activation markers CD69 and CD25. Briefly, cells were harvested 48 hours after Tideglusib treatment, incubated with the antibodies for 15 minutes at room temperature, than washed and fixed with 1% PFA for 30 minutes; then washed again and analyzed via flow cytometer.

CD4+ T cells [2] = experiment: Example 5: CD4+ T cell viability, Cell Titer Blue assay; type: cell-based, human; conditions: 48 hours; SB-216763 and tideglusib 10/100/1000 nM; bryostatin-1 10 nM
Description: 25 μl from each well/treatment were incubated with Cell Titer Blue reagent (Promega) for 3 to 4 hours at 37° C. The assay is based on the ability of living cells to convert a redox dye (resazurin) into a fluorescent end product (resorufin). Colorimetric analysis of treated cells was done with a Perkin Elmer EnSpire 2300 Multimode plate reader set to detect fluorescence (Ex:579 nm/Em:584 nm).

CD4+ T cells [3] = experiment: Example 5: surface expression of activation markers CD69 and CD25, flow cytometry; type: cell-based, human; conditions: 48 hours
Description: Freshly isolated PBMCs or CD4^+ T cells were stained for viability, using the fixable viability dye Zombie violet (1:50, Biolegend) according to the manufacturer's recommendation. Surface staining was performed with the following antibodies at 1:100 dilutions: CD3-PE-Cy7, CD4-APC-Cy7, CD69-FITC, CD25-PE (all 1:100, Biolegend), and Glut-1-Ax647 (BD Bioscience, 566580) in staining buffer for 20 min on ice and cells were fixed in 1% PFA-containing PBS. All flow analysis was performed on the LSRII (BD Biosciences) using FlowJo software (v.10.4.2). Color compensations were performed using single-stained samples for each of the fluorochromes used. Data were analyzed using FlowJo software (TreeStar, San Carlos, Calif.).

[4] = system: HIV-specific CD8+ T cells; experiment: Example 5: granzyme B cytotoxicity assay and infected CD4+ T-cell elimination (ICE); type: cell-based, human; conditions: 1 μM for 6 days
Description: PBMCs were co-incubated with HIVSF162-infected autologous CD4^+ T-cell targets (E:T 25:1)+/−tideglusib at a final concentration of […] in 96 deep (1 mL) well plates for 6 days. As before, cultured day 6 cells were then labeled with immuno-magnetic beads (CD8 T-cell Isolation Kit II, Miltenyi Biotec) prior to negative selection of CD8^+ T-cells by magnetic automated cell sorting (ref Migueles et al., 2008, 2009). Cytotoxic responses were measured against LIVE/DEAD Fixable Violet Stain (Molecular Probes, Invitrogen Detection Technologies, Eugene, Oreg., USA)-labeled HIVSF162-infected or uninfected autologous CD4^+ T-cell targets in assays examining GrB target cell activity and infected CD4^+ T-cell elimination (ICE) as previously reported (ref Migueles et al., 2008, 2009). Cells were analyzed on a FACSAria multi-laser cytometer (Becton-Dickinson) with FACSDiva software. Gates were drawn on labeled CD4^+ T-cell targets and 5,000-15,000 events were collected. Color compensations were performed using single-stained samples for each of the fluorochromes used. Data were analyzed using FlowJo software (TreeStar, San Carlos, Calif.).

[5] = cited from earlier work
[6] = also in the brain; cited from earlier work
[7] = system: latent HIV in CD4+ T cells from HIV-1-infected individuals on suppressive ART; experiment: Example 1: reactivation of latent HIV, viral mRNA in culture supernatant by ddPCR; conditions: 48 hours
[8] = system: latent HIV in CD4+ T cells of HIV-infected patients on suppressive anti-retroviral therapy; experiment: Example 7: reversal of HIV latency in patient CD4+ T cells, extracellular viral RNA by digital droplet PCR

## O=c1sn(-c2cccc3ccccc23)c(=O)n1Cc1ccccc1 [Tideglusib, 4-benzyl-2-(naphthalen-1-yl)-1,2,4-thiadiazolidine-3,5-dione]
[1]
  activation markers CD69 and CD25 on the surface of CD4+ T cells: not up-regulated
CD4+ T cells [2]
  CD4+ T-cell viability: does not reduce viability
CD4+ T cells [3]
  surface expression of the activation markers CD69 or CD25: no increase
[4]; 1 hour with infected CD4+ T targets
  CD8+ T-mediated infected CD4+ T-cell elimination (ICE): did not alter production of granzyme B (GrB) or prevent CD8^+ T-mediated infected CD4^+ T-cell elimination (ICE)
[4]; PBMCs of HIV-positive progressors
  production of granzyme B (GrB): did not alter production of granzyme B
[5]
  side effects / tolerability in humans: safe (i.e., non-toxic) and well tolerated in humans
[5]; listed as tideglusib
  side effects / tolerability in humans: very low incidence of side-effects
[5]; prolonged treatment
  moderate, asymptomatic and fully reversible increase of transaminase, share of cases: 30%
[6]
  tissue-permeability: high tissue-permeability also in the brain
[7]; 1 μM, one donor
  induction of viral mRNA in culture supernatant, highest single donor: up to 60 fold
[7]; 1 μM, vs DMSO-treated cells
  average increase in viral mRNA released into the culture supernatant compared to untreated control: 30 fold
[7]
  reactivation of latent HIV from CD4+ T cells upon ex vivo treatment: high level of reactivation; also recorded: even greater than that demonstrated with SB-216763
[8]; at equivalent doses
  latency reversing activity, in words: comparable activity
[8]; highest concentration
  induction of latent virus production (virus-associated RNA over DMSO-treated control): ~40 fold
[8]; highest dose
  subjects that did not respond: 1 of 8
